Assay results published in patent US20230286930A1, “N -SUBSTITUTED 4-(1,3-ARYLOXAZOLO-2-YL)PHENYL COMPOUNDS FOR THE TREATMENT AND PROPHYLAXIS OF HEPATITIS B VIRUS INFECTION” (Hoffmann-La Roche Inc., priority 2020, published 2023).

Columns and labels:
[1] = system: HBsAg; experiment: PHH natural infection assay, HBsAg (alphalisa); type: cell-based, HBV; settings: Hepatitis B virus, read-out: HBsAg IC50
Protocol: (§1) Detailed procedures regarding primary human hepatocyte (PHH) HBV natural infection assay are described as below. One tube of frozen PHH (10 million cells) is thawed in 37° C. water bath and then transferred to 20 mL of PHH thawing medium (Sigma, InVitroGRO HT Medium, Cat. S03319) with gently mixing. The cells were then centrifuged at […] for 5 min, the supernatant was discarded and the tube was refilled with 25 mL of PHH plating medium (Sigma, InVitroGRO CP Medium, Cat. S03317). The tube was shaken very gently to re-suspend all cells, and then 50 μL of cells were transferred to each well 384-well collagen I coated plate with appropriate liquid handling equipment, e.g. Integra VIAFLO384 or Agilent Bravo. The cells were then cultured for 24 hours in a cell incubator. For HBV infection, after PHH attachment on the culture plate, the plating medium was removed and replenished with PHH culture medium containing HBV virus. The PHH culture medium was prepared with Dulbecco's Modified Eagle Medium (DMEM)/F12 (1:1 in volume ratio) containing 10% fetal bovine serum (Gibco, Cat. 10099141), 5 ng/mL human epidermal growth factor (Gibco, Cat.PHG0311L), 20 ng/mL dexamethasone (Sigma, Cat.D4902-100 mg), 250 ng/mL human recombinant insulin (Gibco, Cat.41400045) and 100 U/mL penicillin. HBV virus at 200 genome equivalent (GE) per cell with 4% PEG8000 (Sigma, Cat.P1458) containing culture medium were added to the PHH culture medium for infection. The cells were then cultured for 24 hours in cell incubator. Then the cell culture supernatant was removed. The HBV-infected PHH were cultured with sandwich culture method with PHH culture medium containing 1% DMSO and 0.25 mg/mL matrix gel for 72 hours. The supernatant was then refreshed with PHH culture medium containing different concentrations of testing compounds for two times with 72-hour interval. At the end of treatment, the supernatant was collected for viral markers measurements, including HBsAg, HBeAg, HBV DNA and cytotoxicity. HBsAg and HBeAg were detected using alphalisa method using their specific antibodies. For HBV DNA detection, HBV DNA Quantitative Fluorescence Diagnostic Kit (Sansure Biotech Inc.) was used following the manufacture's protocol. Cytotoxicity was determined using Cell Counting Kit-8 (CCK8, Dojindo Molecular Technologies, Inc.).
(§2) The compounds of the present invention were tested for their capacity to inhibit HBsAg and HBeAg as described herein.

[2] = system: HBeAg; experiment: PHH natural infection assay, HBeAg (alphalisa); type: cell-based, HBV; settings: Hepatitis B virus, read-out: HBeAg IC50
Protocol: as §1, §2

[3] = PHH natural infection assay, cytotoxicity (Cell Counting Kit-8); type: cell-based; settings: human
Protocol: as §1

SMILES	IC50 [1]	IC50 [2]	CC50 at 144 h [3]
O=C(Nc1ccc(-c2nc3cccnc3o2)cc1)[C@H]1CCS(=O)(=O)C1 (single isomer, unassigned) [Example 86-a]	4420 nM	7320 nM	> 100 µM
O=C(Nc1ccc(-c2nc3cccnc3o2)cc1)[C@@H]1CCS(=O)(=O)C1 (single isomer, unassigned) [Example 86-b]	1950 nM	1870 nM	> 100 µM
O=C(Nc1ccc(-c2nc3cc(Cl)ccc3o2)cc1)[C@@H]1CCOC1 (single isomer, unassigned) [Example 87-a]	4090 nM	4050 nM	> 100 µM
O=C(Nc1ccc(-c2nc3cc(Cl)ccc3o2)cc1)[C@H]1CCOC1 (single isomer, unassigned) [Example 87-b]	3960 nM	3800 nM	> 100 µM
O=C(Nc1ccc(-c2nc3ccc(F)cc3o2)cc1)C1CCOC1 (stereo not drawn) [Example 1, N-[4-(6-fluoro-1,3-benzoxazol-2-yl)phenyl]tetrahydrofuran-3-carboxamide]	770 nM	700 nM	> 100 µM
CC(O)C(=O)Nc1ccc(-c2nc3ccc(F)cc3o2)cc1 (stereo not drawn) [Example 2, N-[4-(6-fluoro-1,3-benzoxazol-2-yl)phenyl]-2-hydroxy-propanamide]	1140 nM	1290 nM	> 100 µM
CC(C)(C)C(=O)Nc1ccc(-c2nc3ccc(F)cc3o2)cc1 [Example 3, N-[4-(6-fluoro-1,3-benzoxazol-2-yl)phenyl]-2,2-dimethyl-propanamide]	1230 nM	1630 nM	> 100 µM
O=C(Nc1ccc(-c2nc3ccc(F)cc3o2)cc1)C1CCSCC1 [Example 4, N-[4-(6-fluoro-1,3-benzoxazol-2-yl)phenyl]tetrahydrothiopyran-4-carboxamide]	1080 nM	640 nM	> 100 µM
CC1(C(=O)Nc2ccc(-c3nc4ccc(F)cc4o3)cc2)CCCO1 (stereo not drawn) [Example 5, N-[4-(6-fluoro-1,3-benzoxazol-2-yl)phenyl]-2-methyl-tetrahydrofuran-2-carboxamide]	1450 nM	1460 nM	> 100 µM
CC(C)(C)C(=O)Nc1ccc(-c2nc3cc(F)ccc3o2)cc1 [Example 6, N-[4-(5-fluoro-1,3-benzoxazol-2-yl)phenyl]-2,2-dimethyl-propanamide]	1610 nM	5550 nM	> 100 µM
O=C(Nc1ccc(-c2nc3cc(F)ccc3o2)cc1)C1CCSCC1 [Example 7, N-[4-(5-fluoro-1,3-benzoxazol-2-yl)phenyl]tetrahydrothiopyran-4-carboxamide]	3860 nM	5180 nM	> 100 µM
O=C(Nc1ccc(-c2nc3ccc(Cl)cc3o2)cc1)C1CCOC1 (stereo not drawn) [Example 8, N-[4-(6-chloro-1,3-benzoxazol-2-yl)phenyl]tetrahydrofuran-3-carboxamide]	920 nM	820 nM	> 100 µM
CCCC(=O)Nc1ccc(-c2nc3ccc(Cl)cc3o2)cc1 [Example 9, N-[4-(6-chloro-1,3-benzoxazol-2-yl)phenyl]butanamide]	1190 nM	1460 nM	> 100 µM
O=C(Nc1ccc(-c2nc3ccc(Cl)cc3o2)cc1)C1CCS(=O)(=O)C1 (stereo not drawn) [Example 10, N-[4-(6-chloro-1,3-benzoxazol-2-yl)phenyl]-1,1-dioxo-thiolane-3-carboxamide]	6460 nM	4380 nM	> 100 µM
O=C(Nc1ccc(-c2nc3cccc(F)c3o2)cc1)c1ccoc1 [Example 11, N-[4-(7-fluoro-1,3-benzoxazol-2-yl)phenyl]furan-3-carboxamide]	2060 nM	5620 nM	> 100 µM
CC1(C(=O)Nc2ccc(-c3nc4cccc(F)c4o3)cc2)COC1 [Example 12, N-[4-(7-fluoro-1,3-benzoxazol-2-yl)phenyl]-3-methyl-oxetane-3-carboxamide]	480 nM	630 nM	> 100 µM
CC(C)(O)C(=O)Nc1ccc(-c2nc3cccc(F)c3o2)cc1 [Example 13, N-[4-(7-fluoro-1,3-benzoxazol-2-yl)phenyl]-2-hydroxy-2-methyl-propanamide]	260 nM	190 nM	> 100 µM
O=C(Nc1ccc(-c2nc3cccc(F)c3o2)cc1)C12CC(C1)C2 [Example 14, N-[4-(7-fluoro-1,3-benzoxazol-2-yl)phenyl]bicyclo[1.1.1]pentane-1-carboxamide]	330 nM	400 nM	> 100 µM
O=C(Nc1ccc(-c2nc3cccc(F)c3o2)cc1)C1CCOC1 (stereo not drawn) [Example 15, N-[4-(7-fluoro-1,3-benzoxazol-2-yl)phenyl]tetrahydrofuran-3-carboxamide]	990 nM	1070 nM	> 100 µM
O=C(Nc1ccc(-c2nc3cccc(F)c3o2)cc1)C12CC(F)(C1)C2 [Example 16, 3-fluoro-N-[4-(7-fluoro-1,3-benzoxazol-2-yl)phenyl]bicyclo[1.1.1]pentane-1-carboxamide]	480 nM	440 nM	> 100 µM
O=C(Nc1ccc(-c2nc3cccc(F)c3o2)cc1)C1CCS(=O)(=O)C1 (stereo not drawn) [Example 17, N-[4-(7-fluoro-1,3-benzoxazol-2-yl)phenyl]-1,1-dioxo-thiolane-3-carboxamide]	540 nM	630 nM	> 100 µM
O=C(Nc1ccc(-c2nc3cccc(F)c3o2)cc1)C1CCS(=O)(=O)CC1 [Example 18, N-[4-(7-fluoro-1,3-benzoxazol-2-yl)phenyl]-1,1-dioxo-thiane-4-carboxamide]	920 nM	960 nM	> 100 µM
CC(C)(C)C(=O)Nc1ccc(-c2nc3cccc(F)c3o2)cc1 [Example 19, N-[4-(7-fluoro-1,3-benzoxazol-2-yl)phenyl]-2,2-dimethyl-propanamide]	680 nM	980 nM	> 100 µM
O=C(Nc1ccc(-c2nc3cccc(F)c3o2)cc1)C1CC1 [Example 20, N-[4-(7-fluoro-1,3-benzoxazol-2-yl)phenyl]cyclopropanecarboxamide]	700 nM	690 nM	> 100 µM
CC1(C(=O)Nc2ccc(-c3nc4cccc(F)c4o3)cc2)CCOC1 (stereo not drawn) [Example 21, N-[4-(7-fluoro-1,3-benzoxazol-2-yl)phenyl]-3-methyl-tetrahydrofuran-3-carboxamide]	720 nM	850 nM	> 100 µM
O=C(Nc1ccc(-c2nc3cccc(F)c3o2)cc1)C1CC2CCC(C1)O2 (stereo not drawn) [Example 22, N-[4-(7-fluoro-1,3-benzoxazol-2-yl)phenyl]-8-oxabicyclo[3.2.1]octane-3-carboxamide]	960 nM	1230 nM	> 100 µM
O=C(Nc1ccc(-c2nc3cccc(F)c3o2)cc1)C1COCCO1 (stereo not drawn) [Example 23, N-[4-(7-fluoro-1,3-benzoxazol-2-yl)phenyl]-1,4-dioxane-2-carboxamide]	650 nM	520 nM	> 100 µM
CC(O)C(=O)Nc1ccc(-c2nc3cccc(F)c3o2)cc1 (stereo not drawn) [Example 24, N-[4-(7-fluoro-1,3-benzoxazol-2-yl)phenyl]-2-hydroxy-propanamide]	940 nM	1800 nM	> 100 µM
